The test concerns L1210 leukemia ip in BDF1 mice, survival T/C. Description: NCI In Vivo Anticancer Drug Screen. Data for tumor model L1210 Leukemia (intraperitoneal) in B6D2F1 (BDF1) mice. As to conditions: endpoint: mean survival time, higher = longer survival. The method in brief: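 Each compound was tested against a transplantable tumor grown in mice. The endpoint was survival, with treated animals benchmarked against vehicle controls as a simple ratio.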

The mark [1] stands for this setting: dose: 100.0 mg/kg/injection, schedule: Q04DX002 (ip), vehicle: saline.
The mark [2] stands for this setting: dose: 200.0 mg/kg/injection, schedule: Q04DX002 (ip), vehicle: saline.
Where [3] appears, read: dose: 100.0 mg/kg/injection, schedule: Q04DX003 (ip), vehicle: saline with Tween-80.
The mark [4] stands for this setting: dose: 100.0 mg/kg/injection, schedule: Q04DX002 (ip), vehicle: Klucel (hydroxypropylcellulose) (HPC).
The mark [5] stands for this setting: dose: 200.0 mg/kg/injection, schedule: Q04DX002 (ip), vehicle: Klucel (hydroxypropylcellulose) (HPC).
Setting [6] is: dose: 100.0 mg/kg/injection, schedule: Q01DX001 (ip), vehicle: saline.
Setting [7] is: dose: 200.0 mg/kg/injection, schedule: Q01DX001 (ip), vehicle: saline.
[8] abbreviates: dose: 400.0 mg/kg/injection, schedule: Q01DX001 (ip), vehicle: saline.
Setting [9] is: dose: 50.0 mg/kg/injection, schedule: Q01DX009 (ip), vehicle: saline with Tween-80.
Setting [10] is: dose: 100.0 mg/kg/injection, schedule: Q04DX003 (ip), vehicle: Klucel (hydroxypropylcellulose) (HPC).
Setting [11] is: dose: 200.0 mg/kg/injection, schedule: Q04DX003 (ip), vehicle: Klucel (hydroxypropylcellulose) (HPC).
Where [12] appears, read: dose: 400.0 mg/kg/injection, schedule: Q04DX003 (ip), vehicle: Klucel (hydroxypropylcellulose) (HPC).
[13] abbreviates: dose: 100.0 mg/kg/injection, schedule: Q01DX009 (ip), vehicle: saline.
[14] abbreviates: dose: 200.0 mg/kg/injection, schedule: Q01DX009 (ip), vehicle: saline.
[15] abbreviates: dose: 400.0 mg/kg/injection, schedule: Q01DX009 (ip), vehicle: saline.
The mark [16] stands for this setting: dose: 100.0 mg/kg/injection, schedule: Q01DX009 (ip), vehicle: Klucel (hydroxypropylcellulose) (HPC).
The mark [17] stands for this setting: dose: 100.0 mg/kg/injection, schedule: Q04DX003 (ip), vehicle: saline.
Setting [18] is: dose: 200.0 mg/kg/injection, schedule: Q04DX003 (ip), vehicle: saline.
Where [19] appears, read: dose: 100.0 mg/kg/injection, schedule: Q01DX009 (ip), vehicle: saline with Tween-80.
Where [20] appears, read: dose: 200.0 mg/kg/injection, schedule: Q01DX009 (ip), vehicle: saline with Tween-80.

The structures appear in SMILES notation. Several values for one entry are separate records, joined by “and”; a condition that tells them apart may be missing. Equal entries are not always repeated. Toxic doses and inconclusive results are not listed.

On to `C/C(Cl)=C/C(=O)O`, for which the T/C was 106 % of control (dose: 25.0 mg/kg/injection, schedule: Q04DX002 (ip), vehicle: saline); 92 % of control (dose: 50.0 mg/kg/injection, schedule: Q04DX002 (ip), vehicle: saline); 102 % of control (dose: 100.0 mg/kg/injection, schedule: Q01DX001 (ip), vehicle: saline with Tween-80); 92 % of control under setting [1]; 105 % of control (dose: 200.0 mg/kg/injection, schedule: Q01DX001 (ip), vehicle: saline with Tween-80); 98 % of control and 102 % of control under setting [2]. Besides, under “dose: 400.0 mg/kg/injection, schedule: Q01DX001 (ip), vehicle: saline with Tween-80”, the T/C is 96 % of control.

`OC1C=NC(N2CCN(c3ccccc3)CC2)=Cc2ccccc21` (stereo not given): the T/C runs as follows: under setting [3], 97 % of control; (dose: 200.0 mg/kg/injection, schedule: Q04DX003 (ip), vehicle: saline with Tween-80) 95 % of control; (dose: 400.0 mg/kg/injection, schedule: Q04DX003 (ip), vehicle: saline with Tween-80) 92 % of control.

As for `O=S(=O)(O)c1ccc(CCCCCCCCl)cc1`, the T/C is 100 % of control under setting [4] and 90 % of control under setting [5].

Consider `O=P(O)(O)CN(CP(=O)(O)O)CP(=O)(O)O`, for which the T/C is, setting by setting: under setting [6], 101 % of control; under setting [7], 94 % of control; under setting [8], 89 % of control.

Regarding `CC(C)(Br)C(=O)c1ccc([N+](=O)[O-])o1`, the T/C is 97 % of control (dose: 12.5 mg/kg/injection, schedule: Q01DX009 (ip), vehicle: saline with Tween-80); 104 % of control (dose: 25.0 mg/kg/injection, schedule: Q01DX009 (ip), vehicle: saline with Tween-80); 104 % of control (dose: 25.0 mg/kg/injection, schedule: Q04DX003 (ip), vehicle: saline with Tween-80); 95 % of control under setting [9]; 96 % of control (dose: 50.0 mg/kg/injection, schedule: Q04DX003 (ip), vehicle: saline with Tween-80); 99 % of control and 89 % of control under setting [3].

As to `COc1ccc(OCC(=O)N2CCCC2)cc1`, the T/C reads like this: under setting [4], 103 % of control; under setting [5], 96 % of control; (dose: 400.0 mg/kg/injection, schedule: Q04DX002 (ip), vehicle: Klucel (hydroxypropylcellulose) (HPC)) 96 % of control.

As to `OCCCNc1nc2cc(Br)ccc2c2ccc(Br)cc12`, the T/C reads like this: under setting [10], 90 % of control; under setting [11], 105 % of control; under setting [12], 97 % of control.

For `N#Cc1c2c(c(O)[nH]c1=O)CCCC2`, the T/C is, setting by setting: under setting [13], 97 % of control; under setting [10], 94 % of control; under setting [14], 97 % of control; under setting [11], 102 % of control; under setting [15], 101 % of control; under setting [12], 96 % of control.

For `O=c1[nH]/c(=C\c2ccc3c(c2)OCO3)c(=O)[nH]/c1=C\c1ccc2c(c1)OCO2`, the T/C under setting [16] is 94 % of control; the T/C under setting [10] was 93 % of control; the T/C (dose: 200.0 mg/kg/injection, schedule: Q01DX009 (ip), vehicle: Klucel (hydroxypropylcellulose) (HPC)) is 86 % of control; the T/C under setting [11] was 96 % of control; the T/C (dose: 400.0 mg/kg/injection, schedule: Q01DX009 (ip), vehicle: Klucel (hydroxypropylcellulose) (HPC)) was 89 % of control; the T/C under setting [12] was 98 % of control.

Regarding `COc1ccccc1NC(=O)Oc1ccc(Br)cc1Br`, the T/C was 95 % of control under setting [6]; 102 % of control and 106 % of control under setting [13]; 105 % of control and 109 % of control under setting [1]; 93 % of control under setting [17]; 101 % of control under setting [7]; 103 % of control and 110 % of control under setting [14]. The T/C under setting [2] is 105 % of control and 109 % of control; the T/C under setting [18] is 95 % of control; the T/C under setting [8] was 123 % of control; the T/C under setting [15] was 103 % of control and 109 % of control; the T/C (dose: 400.0 mg/kg/injection, schedule: Q04DX002 (ip), vehicle: saline) is 107 % of control and 88 % of control; the T/C (dose: 400.0 mg/kg/injection, schedule: Q04DX003 (ip), vehicle: saline) was 101 % of control.

As for `CC1CNC(c2ccc(NC(=O)c3ccc(C(=O)Nc4ccc(C5=NC(C)CN5)cc4)c(NC(=O)Nc4cccc(C5=NC(C)CN5)c4)c3)cc2)=N1` (stereo not given), the T/C was 116 % of control (dose: 1.88 mg/kg/injection, schedule: Q01DX Z (ip), vehicle: saline); 103 % of control (dose: 3.75 mg/kg/injection, schedule: Q01DX Z (oral), vehicle: saline); 153 % of control (dose: 7.5 mg/kg/injection, schedule: Q01DX Z (ip), vehicle: saline); 106 % of control (dose: 7.5 mg/kg/injection, schedule: Q01DX Z (oral), vehicle: saline); 101 % of control (dose: 15.0 mg/kg/injection, schedule: Q01DX Z (oral), vehicle: saline); 117 % of control (dose: 30.0 mg/kg/injection, schedule: Q01DX Z (oral), vehicle: saline). For the same compound, the T/C reads like this: (dose: 62.5 mg/kg/injection, schedule: Q01DX010 (oral), vehicle: saline) 99 % of control; (dose: 125.0 mg/kg/injection, schedule: Q01DX010 (oral), vehicle: saline) 100 % of control; (dose: 250.0 mg/kg/injection, schedule: Q01DX010 (oral), vehicle: saline) 92 % of control.

As to `CS(=O)(=O)OCCN(CCOS(C)(=O)=O)c1ccc(C=Nc2cccc(Br)c2)c(Cl)c1`, the T/C by setting is: under setting [10], 111 % of control; under setting [11], 111 % of control; under setting [12], 120 % of control.

Turning to `CCOC(=O)C(=N\Nc1cc(C)ccc1C)/C(C)=N\NC(N)=S`, the T/C by setting is: (dose: 75.0 mg/kg/injection, schedule: Q01DX001 (ip), vehicle: saline) 87 % of control; (dose: 150.0 mg/kg/injection, schedule: Q01DX001 (ip), vehicle: saline) 97 % of control; (dose: 300.0 mg/kg/injection, schedule: Q01DX001 (ip), vehicle: saline) 97 % of control.

`Cc1ccc(Cl)cc1NS(=O)(=O)c1cccc([N+](=O)[O-])c1`: the T/C runs as follows: under setting [19], 94 % of control; under setting [20], 90 % of control.

Regarding `COc1ccc(C(=O)/C=C/c2cccc([N+](=O)[O-])c2)cc1`, the T/C was 97 % of control under setting [9], 97 % of control under setting [19] and 97 % of control under setting [20].

`Fc1cc(F)c(F)c(Oc2c(F)c(F)c(-c3c(F)c(F)c(F)c(F)c3F)c(F)c2F)c1F`: the T/C is, setting by setting: under setting [19], 104 % of control; under setting [20], 90 % of control; (dose: 400.0 mg/kg/injection, schedule: Q01DX009 (ip), vehicle: saline with Tween-80) 101 % of control.

Consider `O=C1CC2c3ccccc3C1C1C(=O)OC(=O)C21` (stereo not given), for which the T/C was 94 % of control (dose: 25.0 mg/kg/injection, schedule: Q01DX009 (ip), vehicle: Klucel (hydroxypropylcellulose) (HPC)); 105 % of control (dose: 50.0 mg/kg/injection, schedule: Q01DX009 (ip), vehicle: Klucel (hydroxypropylcellulose) (HPC)); 102 % of control under setting [6]; 112 % of control under setting [16]; 96 % of control under setting [13]; 107 % of control under setting [10]. Moreover, the T/C reads like this: under setting [17], 100 % of control; under setting [7], 98 % of control; under setting [11], 100 % of control; under setting [18], 91 % of control; under setting [8], 93 % of control; under setting [12], 109 % of control.

Regarding `COC(=O)c1c2c(nc3ccccc13)-c1ccccc1C(C)(C)C2OC` (stereo not given), the T/C under setting [10] was 113 % of control, the T/C under setting [11] was 102 % of control and the T/C under setting [12] was 101 % of control.

Regarding `Cc1cc(/C=N/Nc2ccc3cccc(O)c3n2)c(O)c2ncccc12`, the T/C (dose: 200.0 mg/kg/injection, schedule: Q01DX001 (ip), vehicle: carboxymethylcellulose (CMC)) is 93 % of control.

(Values after PubChem BioAssay AID248 (DTP/NCI, 2004).)
